According to patent publication US5162328A, “N-[3-[2-(1H-imidazol-1-yl)ethoxy]phenyl]-4-(2-thienyl)-2-pyrimidinamine and pharmacologically acceptable salts” (American Cyanamid Company, priority 1991, dated 1992):
Read-outs that look alike come from different tables or passages of the source.

Assay: Pharmacokinetics in dogs (plasma concentration by HPLC)
Assay type: in vivo, dog (beagle)
Settings: dog; for concentration at 0.5 h / concentration at 1 h / concentration at 2 h / concentration at 4 h / concentration at 7 h / concentration at 12 h / AUC(0-t) / Cmax / Tmax / half-life / AUC(0-inf): plasma, po, 2 mg/kg/day, 2 mg/kg/day PO; for AUC(0-inf): read-out: AUCO- (to infinite time)
Description: Since dogs are used in toxicology studies of antiasthma compounds, this species is chosen for pharmacokinetic evaluations. Use of the dog permits the pharmacokinetic comparison of 2 or more compounds in the same test animal, an evaluation which could not be conveniently performed in a smaller species. For each test compound, normal dogs are given a dose of 2.0 mg/kg/day for 5 consecutive days. There is a washout period of 1 month between the study of each of the test compounds in the same four dogs. Each test compound is administered as a solution of 5 mg/ml in either 0.05 or 0.1N HCl which is dispensed into a gelatin capsule immediately prior to dosage.
Heparinized blood samples are obtained from each animal on the first, third and fifth day of dosage at 0.5, 1.0, 2.0, 4.0, 7.0, 12.0 and 24.0 hours after the dose. The samples are centrifuged immediately to obtain plasma which is frozen until analyzed.
Analysis of plasma is performed using High Performance Liquid Chromatography (HPLC). The analytical procedure is essentially identical for each compound. The internal standard used for N-[3-[2-(1H-imidazol-1-yl)ethoxy]phenyl]-4-(2-thienyl)2-pyrimidinamine is 2-chloro-11-(4-methyl-1-piperazinyl)dibenz[b,f][1,4]oxazepine succinate, while for 2-methyl-N^4 -[4-(4-pyridinyl)-2-pyrimidinyl]-1,4-benzenediamine dihydrochloride and N-[4-[2-(diethylamino)ethoxy]phenyl]-4-(4-pyridinyl)-2-pyrimidnamine dihydrochloride the internal standard is 7-ethoxy-coumarin. In a typical procedure, a 0.4 ml volume of acetonitrile containing internal standard is added a 0.2 ml volume of serum. The sample is mixed by vortexing and centrifuged. The clear protein free supernatent fluid is decanted into a clean tube and evaporated to dryness. The dry residue is dissolved in 0.2 ml of HPLC mobile phase and 50 ul of this solution injected. Peaks corresponding to the test compound being measured and to the internal standard compound are quantitated by their absorption of ultraviolet light at 280 nm. Each set of analytical samples is accompanied by the analysis of a group of standard dog plasma samples prepared to contain amounts of the compound being measured which encompasses the concentration range of the samples.
Four normal beagle dogs weighing between 9.2 and 10.2 Kg are used in the study.

c1cc(Nc2nccc(-c3cccs3)n2)cc(OCCn2ccnc2)c1 [N-[3-[2-(1H-imidazol-1-yl)ethoxy]phenyl]-4-(2-thienyl)-2-pyrimidinamine]
concentration in plasma over a 12 hour period (in words) (after first dose, FIG. 4): at a higher level for a longer period than the other test compounds | concentration at 0.5 h (Dog 1, day 1, 0.5 h): 483 ng/mL | concentration at 1 h (Dog 1, day 1, 1 h): 595 ng/mL | concentration at 2 h (Dog 1, day 1, 2 h): 392 ng/mL | concentration at 4 h (Dog 1, day 1, 4 h): 281 ng/mL | concentration at 7 h (Dog 1, day 1, 7 h): 122 ng/mL | concentration at 12 h (Dog 1, day 1, 12 h): < 30 ng/mL | AUC(0-t) (Dog 1, day 1): 2160 ng·h/mL | Cmax (Dog 1, day 1): 595 ng/mL | Tmax (Dog 1, day 1): 1 h | half-life (Dog 1, day 1): 2.75 h | AUC(0-inf) (Dog 1, day 1): 2480 ng·h/mL | concentration at 0.5 h (Dog 1, day 3, 0.5 h): < 30 ng/mL | concentration at 1 h (Dog 1, day 3, 1 h): 125 ng/mL | concentration at 2 h (Dog 1, day 3, 2 h): 98 ng/mL | concentration at 4 h (Dog 1, day 3, 4 h): < 30 ng/mL | concentration at 7 h (Dog 1, day 3, 7 h): < 30 ng/mL | concentration at 12 h (Dog 1, day 3, 12 h): < 30 ng/mL | AUC(0-t) (Dog 1, day 3): 143 ng·h/mL | Cmax (Dog 1, day 3): 125 ng/mL | Tmax (Dog 1, day 3): 1 h | AUC(0-inf) (Dog 1, day 3): 398 ng·h/mL | concentration at 0.5 h (Dog 1, day 5, 0.5 h): 339 ng/mL | concentration at 1 h (Dog 1, day 5, 1 h): 418 ng/mL | concentration at 2 h (Dog 1, day 5, 2 h): 267 ng/mL | concentration at 4 h (Dog 1, day 5, 4 h): 112 ng/mL | concentration at 7 h (Dog 1, day 5, 7 h): < 30 ng/mL | concentration at 12 h (Dog 1, day 5, 12 h): < 30 ng/mL | AUC(0-t) (Dog 1, day 5): 996 ng·h/mL | Cmax (Dog 1, day 5): 418 ng/mL | Tmax (Dog 1, day 5): 1 h | half-life (Dog 1, day 5): 1.58 h | AUC(0-inf) (Dog 1, day 5): 1290 ng·h/mL | concentration at 0.5 h (Dog 2, day 1, 0.5 h): 185 ng/mL | concentration at 1 h (Dog 2, day 1, 1 h): 334 ng/mL | concentration at 2 h (Dog 2, day 1, 2 h): 251 ng/mL | concentration at 4 h (Dog 2, day 1, 4 h): 161 ng/mL | concentration at 7 h (Dog 2, day 1, 7 h): < 30 ng/mL | concentration at 12 h (Dog 2, day 1, 12 h): < 30 ng/mL | AUC(0-t) (Dog 2, day 1): 881 ng·h/mL | Cmax (Dog 2, day 1): 334 ng/mL | Tmax (Dog 2, day 1): 1 h | half-life (Dog 2, day 1): 2.88 h | AUC(0-inf) (Dog 2, day 1): 1300 ng·h/mL | concentration at 0.5 h (Dog 2, day 3, 0.5 h): < 30 ng/mL | concentration at 1 h (Dog 2, day 3, 1 h): 205 ng/mL | concentration at 2 h (Dog 2, day 3, 2 h): 129 ng/mL | concentration at 4 h (Dog 2, day 3, 4 h): 36 ng/mL | concentration at 7 h (Dog 2, day 3, 7 h): < 30 ng/mL | concentration at 12 h (Dog 2, day 3, 12 h): < 30 ng/mL | AUC(0-t) (Dog 2, day 3): 383 ng·h/mL | Cmax (Dog 2, day 3): 205 ng/mL | Tmax (Dog 2, day 3): 1 h | half-life (Dog 2, day 3): 1.18 h | AUC(0-inf) (Dog 2, day 3): 477 ng·h/mL | concentration at 0.5 h (Dog 2, day 5, 0.5 h): 54 ng/mL | concentration at 1 h (Dog 2, day 5, 1 h): 222 ng/mL | concentration at 2 h (Dog 2, day 5, 2 h): 149 ng/mL | concentration at 4 h (Dog 2, day 5, 4 h): 30 ng/mL | concentration at 7 h (Dog 2, day 5, 7 h): < 30 ng/mL | concentration at 12 h (Dog 2, day 5, 12 h): < 30 ng/mL | AUC(0-t) (Dog 2, day 5): 447 ng·h/mL | Cmax (Dog 2, day 5): 222 ng/mL | Tmax (Dog 2, day 5): 1 h | half-life (Dog 2, day 5): 0.99 h | AUC(0-inf) (Dog 2, day 5): 525 ng·h/mL | concentration at 0.5 h (Dog 3, day 1, 0.5 h): 97 ng/mL | concentration at 1 h (Dog 3, day 1, 1 h): 325 ng/mL | concentration at 2 h (Dog 3, day 1, 2 h): 303 ng/mL | concentration at 4 h (Dog 3, day 1, 4 h): 138 ng/mL | concentration at 7 h (Dog 3, day 1, 7 h): 45 ng/mL | concentration at 12 h (Dog 3, day 1, 12 h): < 30 ng/mL | AUC(0-t) (Dog 3, day 1): 1160 ng·h/mL | Cmax (Dog 3, day 1): 325 ng/mL | Tmax (Dog 3, day 1): 1 h | half-life (Dog 3, day 1): 1.82 h | AUC(0-inf) (Dog 3, day 1): 1280 ng·h/mL | concentration at 0.5 h (Dog 3, day 3, 0.5 h): 292 ng/mL | concentration at 1 h (Dog 3, day 3, 1 h): 350 ng/mL | concentration at 2 h (Dog 3, day 3, 2 h): 220 ng/mL | concentration at 4 h (Dog 3, day 3, 4 h): 60 ng/mL | concentration at 7 h (Dog 3, day 3, 7 h): < 30 ng/mL | concentration at 12 h (Dog 3, day 3, 12 h): < 30 ng/mL
